How the values were obtained:
[1] = system: Spontaneously hypertensive rats; assay: Blood pressure lowering activity, tail cuff method; format: in vivo
Method: Systolic blood pressure were recorded by a modification of the tail cuff method described by I.M. Claxton, M.G. Palfreyman, R.H. Poyser, R.L. Whiting, European Journal of Pharmacology, 37, 179 (1976). A W+W BP recorder, model 8005 was used to display pulses.Prior to all measurements rats were placed in a heated environment (33.5 ± 0.5°C) before transfer to a restraining cage. Each determination of blood pressure was the mean of at least 6 readings. Spontaneously hypertensive rats (ages 12-18 weeks) with systolic blood pressures >180 mmHg were considered hypertensive.

[2] = system: guinea pig tracheal spiral preparations; assay: Bronchodilation in vitro; guinea pig tracheal spiral preparations; format: cell-based; conditions: relative to total relaxation evoked in the presence of 10⁻³M isoprenaline; for Emax: Cavia porcellus, read-out: I.A. (Intrinsic Activity, efficacy)
Method: Male guinea pigs (300-600g) were stunned by a blow to the head and bled from the carotid artery. The trachea was exposed, dissected free of connective tissue, and transferred to oxygenated krebs solution at 37°C. Next, spirals (2 per trachea) were prepared by cutting the whole trachea spirally along its longitudinal axis and then dividing this spiral lengthwise. Each preparation was mounted, using silk thread, in a 10ml organ bath filled with krebs solution at 37°C and bubbled with 5% CO₂ with O₂. The resting tension of the preparations was set at 2g and changes in muscle tension were monitored isometrically by means of a UFI (2oz) force and displacement transducer (Ormed Ltd) connected to a Linseis pen recorder. All preparations were allowed to equilibrate for 60 minutes. During this equilibration period the preparations were washed by upward displacement at 15 minute intervals and, if necessary, the resting tension was readjusted to 2g using a mechanical micromanipulator system.
Once a steady resting tension had been obtained, the preparations were dosed cumulatively with the test compound (10⁻⁸-2x10⁻⁵M), and finally a maximum relaxation achieved by addition of 10⁻³M isoprenaline. The fall in tension evoked by the test compound was expressed as a percentage of the total relaxation evoked in the presence of 10⁻³M isoprenaline. Appropriate concentration-relaxation curves were then constructed and values for potency (IC₅₀) and efficacy (Intrinsic Activity, I.A.) were obtained.
The compositions of Krebs solution is: sodium chloride 118.07mM, sodium hydrogen carbonate 26.19mM, potassium chloride 4.68mM, potassium orthophosphate 1.18mM, magnesium sulphate septahydrate 1.8mM and calcium chloride 2.52mM;pH ca. 7.45.

Compound | % change in systolic B.P. ([1]; 1 mg/kg p.o., 1 h post dose) | % change in systolic B.P. ([1]; 1 mg/kg p.o., 2 h post dose) | % change in systolic B.P. ([1]; 1 mg/kg p.o., 4 h post dose) | Emax [2] | other results
CC1(C)c2ccc([N+](=O)[O-])cc2[C@@H](n2ccccc2=O)[C@@H]1O [Example 5, Trans-1,1-dimethyl-5-nitro-3-(2-pyridon-1-yl)indan-2-ol] | -40 (n=1) % | -43 (n=1) % | -43 ± 4 (n=1) % | 91% | % change in systolic B.P. ([1]; 1 mg/kg p.o., 6 h post dose): -31 ± 5 (n=5) %
C[C@@H]1CCC(=O)N1C1=CC(C)(C)c2ccc([N+](=O)[O-])cc21 [Example 27, 1,1-dimethyl-5-nitro-3-(5-(R)-methyl-2-oxopyrrolidin-1-yl)ind-2-ene] | – | – | – | 93% | –
CC1(C)c2ccc([N+](=O)[O-])cc2[C@@H](N2CCCCC2=O)[C@@H]1O (relative stereo) [Example 3, Trans 1,1-Dimethyl-5-nitro-3-(2-oxopiperidin-1-yl) indan-2-ol] | -33 ± 5 (n=5) % | -17 ± 3 (n=4) % | -22 ± 4 (n=6) % | 89% | % change in systolic B.P. ([1]; 1 mg/kg p.o., 6 h post dose): -19 ± 5 (n=6) %
CC1(C)c2ccc(N)cc2[C@@H](n2ccccc2=O)[C@@H]1O (relative stereo) [Example 9, Trans-5-amino-1,1-dimethyl-3-(2-pyridon-1-yl)indan-2-ol] | – | – | – | – | % change in systolic B.P. ([1]; 3 mg/kg p.o., 1 h post dose): -12 ± 2%; % change in systolic B.P. ([1]; 3 mg/kg p.o., 2 h post dose): -16 ± 3%; % change in systolic B.P. ([1]; 3 mg/kg p.o., 4 h post dose): -14 ± 4%; % change in systolic B.P. ([1]; 3 mg/kg p.o., 6 h post dose): -11 ± 2%
C[C@@H]1CCC(=O)N1[C@@H]1c2cc([N+](=O)[O-])ccc2C(C)(C)[C@H]1O (mixture of isomers) [Example 26, Trans-1,1-Dimethyl-5-nitro-3-(5-(R)-methyl-2-oxopyrrolidin-1-yl)indan-2-ol] | – | – | – | 98% | –
CCc1ccc2c(c1)[C@@H](N1CCCCC1=O)[C@H](O)C2(C)C (relative stereo) [Example 17, Trans-1,1-Dimethyl-5-ethyl-3-(2-oxopiperidin-1-yl)indan-2-ol] | – | – | – | 76% | –
CCc1ccc2c(c1)[C@@H](n1ccccc1=O)[C@H](O)C2(C)C (relative stereo) [Example 23, Trans 1,1-Dimethyl-5-ethyl-3-(2-pyridon-1-yl)indan-2-ol] | – | – | – | – | I.A. (Intrinsic Activity, efficacy) [2]: 0.92
CC1(C)c2ccc(C#N)cc2[C@@H](n2ccccc2=O)[C@@H]1O [Example 7, Trans-5-cyano-1,1-dimethyl-3-(2-pyridon-1-yl)-indan-2-ol] | -31 ± 3% | -22 ± 4% | -20 ± 4% | 81% | % change in systolic B.P. ([1]; 1 mg/kg p.o., 6 h post dose): -12 ± 6%
CC1(C)C=C(N2CCCCC2=O)c2cc([N+](=O)[O-])ccc21 [Example 4, 1,1-dimethyl-5-nitro-3-(2-oxopiperidin-1-yl)ind-2-ene] | – | – | – | 94% | –
CC1(C)c2ccc([N+](=O)[O-])cc2[C@@H](N2CCCC2=O)[C@@H]1O (relative stereo) [Example 1, trans - 1,1-dimethyl-5-nitro-3-(2-oxopyrrolidin-1-yl)-indan-2-ol] | – | – | – | 88% | % change in systolic B.P. ([1]; 10 mg/kg p.o., 1 h post dose): -48 ± 4(n=4) %; % change in systolic B.P. ([1]; 10 mg/kg p.o., 2 h post dose): -49 ± 6(n=3) %; % change in systolic B.P. ([1]; 10 mg/kg p.o., 4 h post dose): -42 ± 4(n=6) %; % change in systolic B.P. ([1]; 10 mg/kg p.o., 6 h post dose): -30 ± 4(n=6) %
O=C(N[C@@H]1c2cc([N+](=O)[O-])ccc2C[C@H]1O)c1ccc(F)cc1 [Example 10, Trans-1-N-(4-fluorobenzamido)-6-nitroindan-2-ol] | – | – | – | 59% | –
CC1(C)C=C(CN2CCCC2=O)c2cc(C#N)ccc21 [Example 24, 5-Cyano-1,1-dimethyl-3-[(2-oxopyrrolidin-1-yl)methyl]ind-2-ene] | – | – | – | 59% | –
CC1(C)C=C(n2ccccc2=O)c2cc([N+](=O)[O-])ccc21 [Example 6, 1,1-Dimethyl-5-nitro-3-(2-pyridon-1-yl)ind-2-ene] | -18 ± 3% | -18 ± 3% | -13 ± 3% | 95% | –
CC1(C)C=C(N2CCCCC2=O)c2ccc(C(F)(F)F)cc21 [Example 16, 1,1-dimethyl-3-(2-oxopiperidin-1-yl)-6-trifluoromethylind-2-ene] | – | – | – | 89% | –
CC1(C)C=C(n2ccccc2=O)c2cc(C#N)ccc21 [Example 8, 5-Cyano-1,1-dimethyl-3-(2-pyridon-1-yl)ind-2-ene] | -12 ± 5% | -15 ± 3% | -26 ± 8% | 77% | % change in systolic B.P. ([1]; 1 mg/kg p.o., 6 h post dose): -21 ± 2%
